The nature of data set [1]: Half life in ip dosed mouse. The class given is ADME, organism-based. Conditions: in vivo.
A further data set deals with HT-29. As to the kind of experiment: Cytotoxicity against human HT-29 cells assessed as decrease in cell viability incubated for 48 hrs by SRB assay. The note with it: HT-29, 48 h. The class given is functional, cell-based. A general note: In SRB staining, fixed cells bind dye roughly in proportion to their protein.
In another data set the test system is RKO. As to the kind of experiment: Cytotoxicity against human RKO cells assessed as decrease in cell viability incubated for 48 hrs by SRB assay. It counts as functional, cell-based.
Another data set relates to HCT-15. As to the kind of experiment: Cytotoxicity against human HCT-15 cells assessed as decrease in cell viability incubated for 48 hrs by SRB assay. The class given is functional, cell-based. The note with it: HCT-15, 48 h.
The test system of a further data set is SW-620. As to the kind of experiment: Cytotoxicity against human SW620 cells assessed as decrease in cell viability incubated for 48 hrs by SRB assay. The class given is functional, cell-based. Conditions: SW-620, 48 h.
The next data set concerns SW480. As to the kind of experiment: Cytotoxicity against human SW480 cells assessed as decrease in cell viability incubated for 48 hrs by SRB assay. Conditions: SW480, 48 h. It counts as functional, cell-based.
The test system of another data set is HCT-116. Kind of data set: Cytotoxicity against human HCT-116 cells assessed as decrease in cell viability incubated for 48 hrs by SRB assay. It counts as functional, cell-based. Conditions: HCT-116, 48 h.

For `O=c1[nH]cc(F)c(=O)[nH]1` [FLUOROURACIL], the half-life (as a rule, the time needed for the level to fall by half in the phase considered) in data set [1] was 1.36 h. For the same compound, the concentration for half-maximal inhibition (IC50) in the data set with HT-29, with RKO, in the data set on HCT-15, in the data set with SW-620, in the data set on SW480 and with HCT-116 was 12 µM throughout.
